From the supplement of paper PMC10883282

What was measured:
Assay in all cases: relative viability vs DMSO control (72 h) (fraction); higher = more viable cells
HT1080 = tested on: HT1080
Procedure, shortened: (§1)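 Sarcoma cell lines were seeded in 384-well plates at densities chosen for 80–90% confluence, then 24 h later given 2.5 µl of serially diluted compound drawn from source plates spanning 10 mM to 0.0002 mM. They were held 72 h at 37 °C, 5% CO2, with 0.1% DMSO vehicle and a 5 µM positive control included. Relative viability was read with ATPLite as percent growth and averaged over up to triplicate wells. Rescaling placed full at 1 and none at 0.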

SW872 = tested on: SW872
Procedure, shortened: as §1

SW1353 = tested on: SW1353
Procedure, shortened: as §1

KHOS-NP = tested on: KHOS-NP
Procedure, shortened: as §1

RD-ES = tested on: RD-ES
Procedure, shortened: as §1

MES-SA = tested on: MES-SA
Procedure, shortened: as §1

SK-ES-1 = tested on: SK-ES-1
Procedure, shortened: as §1

SW684 = tested on: SW684
Procedure, shortened: as §1

SK-LMS-1 = tested on: SK-LMS-1
Procedure, shortened: as §1

G401 = tested on: G401
Procedure, shortened: as §1

VA-ES-BJ = tested on: VA-ES-BJ
Procedure, shortened: as §1

RD = tested on: RD
Procedure, shortened: as §1

CC(=O)c1c(C)c2cnc(Nc3ccc(N4CCNCC4)cn3)nc2n(C2CCCC2)c1=O [Palbociclib]
Conditions | relative viability
G401, 0.00017 µM | 1.04
G401, 0.00051 µM | 1.03
G401, 0.00152 µM | 1.016
G401, 0.00457 µM | 0.989
G401, 0.01372 µM | 0.962
G401, 0.04115 µM | 0.938
G401, 0.1235 µM | 0.882
G401, 0.3704 µM | 0.856
G401, 1.111 µM | 0.833
G401, 3.333 µM | 0.742
G401, 10 µM | 0.293
HT1080, 0.00017 µM | 1.09
HT1080, 0.00051 µM | 1.1
HT1080, 0.00152 µM | 1.11
HT1080, 0.00457 µM | 1.08
HT1080, 0.01372 µM | 1.13
HT1080, 0.04115 µM | 1.12
HT1080, 0.1235 µM | 1.16
HT1080, 0.3704 µM | 1.16
HT1080, 1.111 µM | 1.06
HT1080, 3.333 µM | 0.973
HT1080, 10 µM | 0.44
KHOS-NP, 0.00017 µM | 1.12
KHOS-NP, 0.00051 µM | 1.11
KHOS-NP, 0.00152 µM | 1.124
KHOS-NP, 0.00457 µM | 1.1
KHOS-NP, 0.01372 µM | 1.13
KHOS-NP, 0.04115 µM | 1.12
KHOS-NP, 0.1235 µM | 1.11
KHOS-NP, 0.3704 µM | 1.1
KHOS-NP, 1.111 µM | 1.07
KHOS-NP, 3.333 µM | 0.902
KHOS-NP, 10 µM | 0.742
MES-SA, 0.00017 µM | 0.965
MES-SA, 0.00051 µM | 0.977
MES-SA, 0.00152 µM | 0.975
MES-SA, 0.00457 µM | 0.936
MES-SA, 0.01372 µM | 0.9398
MES-SA, 0.04115 µM | 0.852
MES-SA, 0.1235 µM | 0.782
MES-SA, 0.3704 µM | 0.678
MES-SA, 1.111 µM | 0.641
MES-SA, 3.333 µM | 0.521
MES-SA, 10 µM | 0.366
RD, 0.00017 µM | 1.03
RD, 0.00051 µM | 1.08
RD, 0.00152 µM | 1.11
RD, 0.00457 µM | 1.09
RD, 0.01372 µM | 1.08
RD, 0.04115 µM | 1.09
RD, 0.1235 µM | 1.05
RD, 0.3704 µM | 1.01
RD, 1.111 µM | 0.968
RD, 3.333 µM | 0.905
RD, 10 µM | 0.276
RD-ES, 0.00017 µM | 0.959
RD-ES, 0.00051 µM | 0.9884
RD-ES, 0.00152 µM | 0.98
RD-ES, 0.00457 µM | 0.931
RD-ES, 0.01372 µM | 0.917
RD-ES, 0.04115 µM | 0.835
RD-ES, 0.1235 µM | 0.735
RD-ES, 0.3704 µM | 0.652
RD-ES, 1.111 µM | 0.603
RD-ES, 3.333 µM | 0.563
RD-ES, 10 µM | 0.18
SK-ES-1, 0.00017 µM | 1
SK-ES-1, 0.00051 µM | 1.07
SK-ES-1, 0.00152 µM | 1.03
SK-ES-1, 0.00457 µM | 1.02
SK-ES-1, 0.01372 µM | 0.9868
SK-ES-1, 0.04115 µM | 0.865
SK-ES-1, 0.1235 µM | 0.674
SK-ES-1, 0.3704 µM | 0.512
SK-ES-1, 1.111 µM | 0.467
SK-ES-1, 3.333 µM | 0.407
SK-ES-1, 10 µM | 0.241
SK-LMS-1, 0.00017 µM | 1.05
SK-LMS-1, 0.00051 µM | 1.04
SK-LMS-1, 0.00152 µM | 1.08
SK-LMS-1, 0.00457 µM | 1.05
SK-LMS-1, 0.01372 µM | 1.06
SK-LMS-1, 0.04115 µM | 0.97
SK-LMS-1, 0.1235 µM | 0.998
SK-LMS-1, 0.3704 µM | 0.961
SK-LMS-1, 1.111 µM | 1
SK-LMS-1, 3.333 µM | 1.06
SK-LMS-1, 10 µM | 0.798
SW684, 0.00017 µM | 1.19
SW684, 0.00051 µM | 1.2
SW684, 0.00152 µM | 1.24
SW684, 0.00457 µM | 1.241
SW684, 0.01372 µM | 1.28
SW684, 0.04115 µM | 1.21
SW684, 0.1235 µM | 1.18
SW684, 0.3704 µM | 1.11
SW684, 1.111 µM | 1.05
SW684, 3.333 µM | 0.933
SW684, 10 µM | 0.7226
SW872, 0.00017 µM | 1.11
SW872, 0.00051 µM | 1.1
SW872, 0.00152 µM | 1.07
SW872, 0.00457 µM | 1.09
SW872, 0.01372 µM | 1.07
SW872, 0.04115 µM | 1.03
SW872, 0.1235 µM | 0.968
SW872, 0.3704 µM | 0.884
SW872, 1.111 µM | 0.83
SW872, 3.333 µM | 0.78
SW872, 10 µM | 0.726
SW1353, 0.00017 µM | 1.05
SW1353, 0.00051 µM | 1.06
SW1353, 0.00152 µM | 1.05
SW1353, 0.00457 µM | 1.04
SW1353, 0.01372 µM | 1.01
SW1353, 0.04115 µM | 0.955
SW1353, 0.1235 µM | 0.9442
SW1353, 0.3704 µM | 0.9
SW1353, 1.111 µM | 0.859
SW1353, 3.333 µM | 0.87
SW1353, 10 µM | 0.425
VA-ES-BJ, 0.00017 µM | 1.1
VA-ES-BJ, 0.00051 µM | 1.1
VA-ES-BJ, 0.00152 µM | 1.081
VA-ES-BJ, 0.00457 µM | 1.08
VA-ES-BJ, 0.01372 µM | 0.99
VA-ES-BJ, 0.04115 µM | 0.9367
VA-ES-BJ, 0.1235 µM | 0.807
VA-ES-BJ, 0.3704 µM | 0.666
VA-ES-BJ, 1.111 µM | 0.584
VA-ES-BJ, 3.333 µM | 0.547
VA-ES-BJ, 10 µM | 0.499
